What was measured:
[1] = target: T1, CB2 receptor (Homo sapiens, UniProt P34972); test: CB2 binding procedure, displacement of [3H]CP-55,940 from membranes of transfected CHO cells; settings: for Ki: Table 6, read-out: CB2 KI; for CB1/CB2: ratio of CB1 Ki to CB2 Ki
T1 construct: expressed in transfected cells
Procedure: Membranes for CB2 binding were obtained from CHO cells. The transfected cell line was maintained in Dublecco's Modified Eagle Medium (Gibco BRL, Grand Island, N.Y.) with 10% fetal clone II (HyClone Laboratories, Inc., Logan, Utah) plus 0.3 to 0.5 mg/ml G418 (to maintain selective pressure) under 5% CO2 at 37% C. Cells were harvested with 1 mM EDTA in phosphate-buffered saline and were centrifuged at 1000×g for 5 min at 4% C. The supernatant was saved and the P1 pellet was resuspended in centrifugation buffer. Homogenization and centrifugation were repeated twice and the combined supernatant fractions were centrifuged at 40,000×g for 30 min at 4% C. The P2 pellet was resuspended in centrifugation buffer 2 (Tris HCl, 50 mM; EDTA, 1 mM; and MgCl2, 3 mM, pH 7.4) to a protein concentration of approximately 2 mg/ml. Protein concentrations were determined by the method of Bradford (1976) using Bio-Rad Protein Assay (Bio-Rad, Richmond, Calif.) and BSA standards (fatty acid free, Sigma Chemical Co., St. Louis, Mo.). The membrane preparation was divided into amounts convenient for binding assays and frozen rapidly in dry ice and stored at −80% C.
Binding was initiated by the addition of 50•g of quickly thawed P2 membranes to test tubes containing [^3H]CP-55,940 (final reaction concentration 0.5 nM), an appropriate concentration of unlabeled CP-55,940 or test drug, and sufficient quantity of assay buffer (50 mM Tris-HCl, 1 mM EDTA, 3 mM MgCl2, 5 mg/ml bovine serum albumin, pH 7.4) to bring the total incubation volume to 0.5 ml. Concentration of [^3H]CP-55,940 in saturation studies ranged from 50 to 10,000 pM. […] CP-55,940 and all cannabinoid analogs were-prepared by suspension in assay buffer from a 1 mg/ml ethanolic stock without evaporation of the ethanol (final concentration of no more than 0.4%). In competition studies, analog concentrations ranged from 0.1 nM to 10•M. After incubation at […] for 1 hr, binding was terminated by the addition of 2 ml of ice-cold wash buffer (50 mM Tris-HCl and 1 mg/ml BSA) and vacuum filtration through pre-treated filters in a 12-well sampling manifold (Millipore, Bedford, Mass.). Reaction vessels were washed once with 2 ml of ice-cold wash buffer. Filters were placed into 7-ml plastic scintillation vials (RPI Corp., Mount Prospect, Ill.) with 4 ml of Budget-Solve (RPI Corp.). After shaking for 30 min, the radioactivity present was determined by liquid scintillation spectrometry. Three reaction vessels were used for each drug concentration in each assay. The results represent the combined data of three independent experiments. All assays were performed in siliconized test tubes, which were prepared by air drying (12 hr) inverted borosilicate tubes after two rinses with a 0.1% solution of AquaSil (Pierce, Rockford, Ill.). The GF/C glass-fiber filters (2.4 cm, Baxter, McGaw Park, Ill.) were pre-treated in a 0.1% solution of pH 7.4 polyethylenimine (Sigma Chemical Co.) for at least 6 hr.
(§1) In addition, multiple linear regression was used to calculate the overall degree of relationship between CB1 binding affinity and potency in the mouse measures for all active cannabinoids. […] Ki values for CB1 and CB2 binding were obtained from Scatchard displacement analysis as determined via EBDA program of the KELL software package (Biosoft, Milltown, N.J.).

[2] = target: T2, CB1 receptor (Rattus norvegicus, UniProt P20272); test: CB1 binding procedure, displacement of [3H]CP 55,940 from rat whole-brain P2 membranes; settings: Table 6; read-out: CB1 KI
T2 construct: whole brain was homogenized and centrifuged; from tissue; host or cells: whole brain of male Sprague-Dawley rats, P2 membrane fraction
Procedure: (§2) Male ICR mice (25-32 g), obtained from Harlan (Dublin, Va.), were housed in groups of five. All animals were kept in a temperature-controlled (20-22° C.) environment with a 12-hour light-dark cycle (lights on at 7 a.m.). Separate mice were used for testing each drug dose in the in vivo behavioral procedures. Brain tissue for binding studies was obtained from male Sprague-Dawley rats (150-200 g) purchased from Harlan Laboratories (Dublin, Va.).
The methods used for tissue preparation and binding have been described previously (Compton et al., 1993) and are similar to those described by Devane et al. (1988). All assays, as described briefly below, were performed in triplicate, and the results represent the combined data from three to six individual experiments.
Following decapitation and rapid removal of the brain, whole brain was homogenized and centrifuged. The resulting pellet was termed P1. The supernatant was saved and combined with the two subsequent supernatants obtained from washing of the P1 pellet. The combined supernatant fractions were centrifuged, resulting in the P2 pellet. After further incubation and centrifuging, this pellet was resuspended in assay buffer to a protein concentration of approximately 2 mg/ml. The membrane preparation was quickly frozen in a bath solution of dry ice and 2-methylbutane (Sigma Chemical Co., St. Louis, Mo.), then stored at −80° C. for no more than 2 weeks. Prior to performing a binding assay an aliquot of frozen membrane was rapidly thawed and protein values determined by the method of Bradford (1976).
Binding was initiated by the addition of 150•g of P2 membrane to test tubes containing 1 nM of [^3H] CP 55,940 (79 Ci/mmol) and a sufficient quantity of buffer to bring the total incubation volume to 1 ml. […] Following incubation at 30° C. for 1 hr, binding was terminated by addition of ice cold buffer and vacuum filtration through pretreated filters in a 12-well sampling manifold (Millipore, Bedford, Mass.). After washing, filters were placed into plastic scintillation vials (Packard, Downer Grove, Ill.) and shaken. The quantity of radioactivity present was determined by liquid scintillation spectrometry.
as §1

[3] = tested on: male ICR mice; test: Change in rectal temperature (RT) in mice, i.v.; assay type: in vivo, mouse; settings: for R.T. effect at dose: @ 30 mg/kg
Procedure: as §2
(§3) Measurement of spontaneous activity in mice occurred in standard activity chambers interfaced with a Digiscan Animal Activity Monitor (Omnitech Electronics, Inc., Columbus, Ohio). A standard tail-flick apparatus and a digital thermometer (Fisher Scientific, Pittsburgh, Pa.) were used to measure antinociception and rectal temperature, respectively.
(§4) Resorcinols were synthesized in our labs (Organix, Inc., Woburn, Mass.) according to the procedure specified below and were suspended in a vehicle of absolute ethanol, Emulphor-620 (Rhone-Poulenc, Inc., Princeton, N.J.), and saline in a ratio of 1:1:18. Drugs were administered to the mice intravenously (i.v.) in the tail vein at a volume of 0.1 ml/10 g.
(§5) Prior to testing in the behavioral procedures, mice were acclimated to the experimental setting (ambient temperature 22-24° C.) overnight. Pre-injection control values were determined for rectal temperature and tail-flick latency (in sec). Five min after i.v. injection with drug or vehicle, mice were placed in individual activity chambers and spontaneous activity was measured for 10 min. […] Tail-flick latency was measured at 20 min post-injection. Maximum latency of 10 sec was used. Antinociception was calculated as percent of maximum possible effect {% MPE=[(test−control latency)/(10-control)]×100}. Control latencies typically ranged from 1.5 to 4.0 sec. At 30 min post-injection, rectal temperature was measured. This value was expressed as the difference between control temperature (before injection) and temperatures following drug administration (° C.). Different mice (n=5-6 per dose) were tested for each dose of each compound. Each mouse was tested in each of the 3 procedures.
(§6) Based on data obtained from numerous previous studies with cannabinoids, maximal cannabinoid effects in each procedure were estimated as follows: 90% inhibition of spontaneous activity, 100% MPE in the tail flick procedure, and −6° C. change in rectal temperature. ED50's were defined as the dose at which half maximal effect occurred. For drugs that produced one or more cannabinoid effect, ED50's were calculated separately using least-squares linear regression on the linear part of the dose-effect curve for each measure in the mouse tetrad, plotted against log10 transformation of the dose. For the purposes of potency comparison, potencies were expressed as μmol/kg.

[4] = tested on: male ICR mice; test: Tail-flick antinociception (TF, % MPE) in mice, i.v.; assay type: in vivo, mouse; settings: @ 30 mg/kg; for inhibition in vivo at 30 mg/kg: Mus musculus, iv, Table 6, read-out: T.F. % effect at dose
Procedure: as §2, §3, §4, §5, §6

[5] = tested on: male ICR mice; test: Suppression of spontaneous activity (SA) in mice, i.v.; assay type: in vivo, mouse; settings: @ 30 mg/kg, Table 6
Procedure: as §2, §3, §4, §5, §6

T1 sequence (P34972 whole entry): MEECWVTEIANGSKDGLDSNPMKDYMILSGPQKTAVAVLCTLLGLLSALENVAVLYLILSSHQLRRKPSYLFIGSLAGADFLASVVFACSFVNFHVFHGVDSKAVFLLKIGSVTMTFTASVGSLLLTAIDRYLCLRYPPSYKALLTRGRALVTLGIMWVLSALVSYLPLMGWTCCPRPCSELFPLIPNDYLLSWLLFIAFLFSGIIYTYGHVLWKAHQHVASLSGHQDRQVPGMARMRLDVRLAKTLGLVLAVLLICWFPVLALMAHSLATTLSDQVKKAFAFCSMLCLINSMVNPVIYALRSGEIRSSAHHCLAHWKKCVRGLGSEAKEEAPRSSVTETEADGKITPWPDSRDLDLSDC
T2 sequence (P20272 whole entry): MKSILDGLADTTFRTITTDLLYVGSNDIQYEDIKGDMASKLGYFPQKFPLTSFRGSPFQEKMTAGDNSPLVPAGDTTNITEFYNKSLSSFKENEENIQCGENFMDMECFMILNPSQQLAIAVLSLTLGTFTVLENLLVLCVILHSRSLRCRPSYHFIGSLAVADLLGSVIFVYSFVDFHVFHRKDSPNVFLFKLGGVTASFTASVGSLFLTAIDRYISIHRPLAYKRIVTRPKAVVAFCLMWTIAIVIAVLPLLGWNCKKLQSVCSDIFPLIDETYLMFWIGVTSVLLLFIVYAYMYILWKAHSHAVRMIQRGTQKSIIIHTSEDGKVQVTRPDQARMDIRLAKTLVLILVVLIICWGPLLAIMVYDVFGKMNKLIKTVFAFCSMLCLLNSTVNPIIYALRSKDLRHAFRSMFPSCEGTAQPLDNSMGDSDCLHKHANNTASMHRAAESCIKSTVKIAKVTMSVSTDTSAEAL

Compound | Ki [1] [µM] | Ki [2] [µM] | inhibition in vivo at 30 mg/kg [4] [%] | CB1/CB2 [1] | R.T. effect at dose ([3]; Table 6, 30 mg/kg) | other results
C=C(C)[C@@H]1CCC(C)=CC1c1c(C)cc(O)cc1O (single isomer, unassigned; (-)) [O-1602] | > 10 | > 10 | 0 | – | – | R.T. effect at dose ([3]; Table 6): 0.3 @ 30 °C
C=C(C)[C@@H]1CCC(C)=CC1c1c(O)cc(C)cc1O (single isomer, unassigned; (-)) [O-1821, (-)-2-(3-3,4-trans-p-menthadien-(1,8)-yl)-orcinol] | – | > 10 | 3 | – | – | S.A. % effect at dose [5]: 0 @ 30%
CCCCCCC(C)(C)c1cc(OC)c(C2(O)CCCC(C)C2)c(OC)c1 (single isomer, unassigned; isomer 1) [O-1966A, 1-[4-(1,1-Dimethyl-heptyl)-2,6-dimethoxy-phenyl]-3-methyl-cyclohexanol isomer 1] | – | – | – | 220 | 0.5 @ 30 °C | –
CCCCCCC(C)(C)c1cc(OC)c(C2(O)CCCC(C)C2)c(OC)c1 (single isomer, unassigned; isomer 2) [O-1967B, 1-[4-(1,1-Dimethyl-heptyl)-2,6-dimethoxy-phenyl]-3-methyl-cyclohexanol isomer 2] | – | – | – | 15 | 0 @ 30 °C | T.F. % effect at dose ([4]; Table 6, 30 mg/kg): 8.2% @30
CCCCCCC(C)(C)c1ccc(-c2cc(C)ccc2C(C)C)c(O)c1 [O-1376, 3-1′,1′-Dimethylhepty-6-(2-isopropyl-5-methylphenyl)phenol] | 0.00263 ± 0.00036 | – | – | 11 | – | ED50 ([3]; Mus musculus, iv, 95% confidence limits in parentheses, read-out: ED50 RT (rectal temperature)): 23 µmol/kg

Source: patent publication US7285687B2 (priority 2002, dated 2007)
